Among the data in patent publication US8951999B2, “Compounds” (Orexo AB, priority 2009, dated 2015) are IC50 values, retold here.

pIC50: −log10 of the molar value.

As a reminder, the pIC50 is the negative decadic logarithm of the IC50, by convention in mol/L.

For the test, the target named is T1, recombinant human mPGES-1 (Homo sapiens, UniProt O14684).
T1 sequence (O14684 1-152): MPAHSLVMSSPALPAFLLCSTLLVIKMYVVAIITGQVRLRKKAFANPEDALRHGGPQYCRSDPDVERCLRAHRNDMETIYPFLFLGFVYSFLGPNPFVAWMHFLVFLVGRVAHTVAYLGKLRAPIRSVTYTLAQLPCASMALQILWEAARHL
The experiment in a line: Assay A: mPGES-1 enzyme assay (HTRF detection of PGE2). The conditions noted are these: biological assay A (compounds 1-41, 54, 55, 62, 73); PGE2 formation from PGH2, HTRF; read-out: mPGES-1 inhibitory effect IC50. The format is biochemical. From the text: Assay A: mPGES-1 Enzyme Assay
The basis of the assay used is to measure the inhibition of microsomal prostaglandin E2 synthase-1 (mPGES-1) dependent prostaglandin (PG) E2 formation from PGH2 by different compounds. Thus, the formation of PGE2 is used as signal and a lowering of this signal can be interpreted as inhibition of mPGES-1. Similar assays to measure inhibition of mPGES-1 have previously been described in the literature.
• Glutathione (Sigma, G-4251) • Freeze culture in Rosetta E coli expression strain. • LB growth media with Ampillicillin (Amp) final concentration in culture 50 μg/mL • Chloroamphenicol stock 34 mg/mL (chloro) final concentration in culture 34 μg/mL • Sterile growth flasks for 500 mL-1 liter cultures • 0.1 M KPi buffer pH 7.4 • 9.25% HCl • PGH2 (0.25 mM) • Fe (II) Cl2 tetrahydrate, 99% (Sigma, 220229) • 384-well plate with compounds • 96-well plate, polypropylene (Thermo fast 96 skirted VWR) • 384-well plate polypropylene PCR plate (Greiner 785201) • Greiner 384-well plate pp (In vitro cat. no. 781280) • Adhesive sealing film for 96-well plates (Sigma-Aldrich) • Aluminium foil (PCR foil, 310-0030-127-471 from Labora) • PBS (GIBCO 14040) • Prostaglandin E2 Assay (Cisbio, cat. no. 62P2APEC) • Biomek FX robot (Beckman Coulter) • Biomek NX robot (Beckman Coulter) • Multidrop; micro or combi (ThermoLabsystems) • Plate reader: Safire2 (Tecan)
Microsomes from Rosetta E. coli bacteria expressing recombinant human mPGES-1 can be derived as described below:
Inoculate 5 mL LB with Amp and Chloro with bacteria from freeze culture. Incubate over night at 37° C. with 200 rpm. Thereafter, inoculate 500-800 mL LB containing Amp and Chloro with the 5 mL on culture and grow to OD640 of 0.6-0.8. Chill the culture to +4° C. before induction. Induce the culture with IPTG at a final concentration of 400 μM. Express the protein at room temp 18-23° C. with 200 rpm shaking over night.
The following steps can be performed on the following day: • 1. Spin down the cells in 250 mL centrifuge flasks for 15 min at 7000 rpm • 2. Dissolve the pellet from 250 mL culture in 12.5 mL homogenization buffer • 3. Disintegrate the cells by sonication, 4×10 seconds at 35% amplitude • 4. Add 2.5 mL MgCl2 (100 mM) and DNase 12.5 μL (0.8 mg/mL) and incubate on ice for 30 min • 5. Spin down the bacteria debris and save the supernatant, 7000 rpm for 15 min • 6. Isolate the protein containing membranes in the supernatant by ultracentrifugation 45000×g for 1 hour. • 7. Discard the supernatant and dissolve the pellet in 20 mM KPi buffer and aliquot the enzyme and store aliquots at −80° C.
Before each experiment is performed an aliquot of the enzyme is thawed and it can then be dissolved in 0.1 M KPi pH 7.4 buffer containing 2.5 mM GSH. 50 μL of this enzyme solution is subsequently dispensed in a 384-well plate at room temperature. 0.5 μL of the inhibitor dissolved in DMSO is thereafter added to each well and incubated for 25 minutes at room temperature. Subsequently, 2 μL of PGH2 dissolved in an appropriate solvent is added to each well and after one minute at room temperature, the acidified stop solution containing FeCl2 is added. 4 μL of the total volume is transferred to a separate plate and diluted 750-fold in two separate steps before quantification of PGE2.
In order to quantitate the amount of PGE2 that has been formed, a homogenous time resolved fluorescent (HTRF) detection of PGE2 can be performed by the use of a commercially available kit from CisBio essentially according to the manufacturer's protocol. […]
In general terms: TR-FRET usually uses a lanthanide donor and a delayed reading to cut background.
As to `CN(C)c1ccc(NC(=O)c2cc(CNC(=O)C(C)(C)C)ccc2Cl)cc1C(=O)N[C@H]1CC[C@H](C(F)(F)F)CC1` [Example 62, N-[4-(dimethylamino)-3-(trans-4-trifluoromethylcyclohexyl)aminocarbonyl-phenyl]-2-chloro-5-(tert-butylcarbonylamino)methyl-benzamide], the negative-log IC50 (pIC50) is 7.96. As for `COc1ccc(NC(=O)c2cc(CNC(=O)C(C)(C)C)ccc2Cl)cc1C(=O)Nc1cc(C(F)(F)F)ccn1` [Example 8, N-[4-Methoxy-3-(4-trifluoromethyl-pyridin-2-yl)aminocarbonyl-phenyl]-2-chloro-5-(tert-butylcarbonylamino)methyl-benzamide], the negative logarithm of the IC50 (pIC50) is 8.15.

On to `COc1ccc(NC(=O)c2cc(CNC(=O)C(C)(C)C)ccc2Cl)cc1C(=O)N[C@H]1CC[C@H](C(C)(C)C)CC1` [Example 18], for which the negative logarithm of the IC50 (pIC50) was 8.70. For the compound `Cc1ccc(NC(=O)c2cc(CNC(=O)C(C)(C)C)ccc2Cl)cc1C(=O)Nc1ccc(Br)cc1` [Example 55, N-[4-Methyl-3-(4-bromophenyl)aminocarbonyl-phenyl]-2-chloro-5-(tert-butylcarbonylamino)methyl-benzamide], the pIC50 was 7.23. Regarding `COc1ccc(NC(=O)c2cc(CNS(=O)(=O)C3CC3)ccc2Cl)cc1C(=O)Nc1ccc(Br)cc1` [Example 36, N-[4-Methoxy-3-(4-bromophenyl)aminocarbonyl-phenyl]-2-chloro-5-cyclopropylsulphonylaminomethyl-benzamide], the negative logarithm of the IC50 (pIC50) is 8.22. The value for `CC(C)(C)C(=O)NCc1ccc(Cl)c(C(=O)Nc2ccc(OCC(F)F)c(C(=O)NCC3CC3)c2)c1` [Example 13] was 7.89; that for `O=C(Nc1ccc(Cl)c(C(=O)NC2CC2)c1)c1cc(CNC(=O)C2CC2)ccc1Cl` [Example 21] was roughly 5.74. On to `COc1ccc(NC(=O)c2cc(CNC(=O)C(C)(N)C(F)(F)F)ccc2Cl)cc1C(=O)Nc1ccc(Br)cc1` (centres unmarked) [Example 33], for which the pIC50 is 8.70. For the compound `CC(C)(C)C(=O)NCc1ccc(Cl)c(C(=O)Nc2ccc(OCC3CC3)c(C(=O)N[C@H]3CC[C@H](C(F)(F)F)CC3)c2)c1` [Example 38, N-[4-(Cyclopropylmethyloxy)-3-[trans-(4-trifluoromethyl-cyclohexyl)amino]carbonyl-phenyl]-2-chloro-5-(tert-butylcarbonylamino)methyl-benzamide], the negative-log IC50 (pIC50) was 8.40. The value for `COc1ccc(NC(=O)c2cc(CNC(=O)c3c(F)ccc(F)c3Cl)ccc2Cl)cc1C(=O)Nc1ccc(Br)cc1` [Example 23] was 9.00; that for `COc1ccc(NC(=O)c2cc(CNC(=O)c3c(F)cccc3C(F)(F)F)ccc2Cl)cc1C(=O)Nc1ccc(Br)cc1` [Example 26] was 8.52; that for `O=C(NCc1ccc(Cl)c(C(=O)Nc2ccc(Cl)c(C(=O)NC3CC3)c2)c1)c1ccc(Cl)s1` [Example 10, N-[4-Chloro-3-cyclopropylaminocarbonyl-phenyl]-2-chloro-5-(5-chloro-thien-2-yl)carbonylaminomethyl-benzamide] was roughly 6.05.

For the compound `CC(C)(C)C(=O)NCc1ccc(Cl)c(C(=O)Nc2ccc(OCC(F)F)c(C(=O)Nc3ccc(F)c(Cl)c3)c2)c1` [Example 7, N-[4-(2,2-Difluoroethyl)oxy-3-(4-fluoro-3-chloro-phenyl)aminocarbonyl-phenyl]-2-chloro-5-(tert-butylcarbonylamino)methyl-benzamide], the negative logarithm of the IC50 (pIC50) is 8.40. For the compound `CC(C)(C)C(=O)NCc1ccc(Cl)c(C(=O)Nc2ccc(OCC(F)F)c(C(=O)N[C@H]3CC[C@H](C(F)(F)F)CC3)c2)c1` [Example 5, N-[4-(2,2-Difluoroethyl)oxy-3-[trans-(4-trifluoromethyl-cyclohexyl)amino]carbonyl-phenyl]-2-chloro-5-(tert-butylcarbonylamino)methyl-benzamide], the negative logarithm of the IC50 (pIC50) was 8.70.

In the case of `COc1ccc(NC(=O)c2cc(CNC(=O)c3cccnc3Cl)ccc2Cl)cc1C(=O)Nc1ccc(Br)cc1` [Example 24], the pIC50 was 8.70. In the case of `CC(C)(C)C(=O)NCc1ccc(Cl)c(C(=O)Nc2ccc(OCC(F)F)c(C(=O)NCC3CCC3)c2)c1` [Example 12], the negative logarithm of the IC50 (pIC50) is 8.52.

For `CNC(=O)c1cc(NC(=O)c2cc(CNC(=O)C3(C)CCCCC3)ccc2C)ccc1Cl` [Example 1, N-(4-Chloro-3-methylaminocarbonyl-phenyl)-2-methyl-5-[(1-methylcyclohexylcarbonylamino)methyl]-benzamide], the negative logarithm of the IC50 (pIC50) is roughly 5.80. Consider `CC(C)(C)C(=O)NCc1ccc(Cl)c(C(=O)Nc2ccc(F)c(C(=O)Nc3ccc(Br)cc3)c2F)c1` [Example 39], for which the pIC50 was 7.74.

Take `COc1ccc(NC(=O)c2cc(CNC(=O)C(C)(C)C)ccc2Cl)cc1C(=O)Nc1ccc(Br)cc1` [Example 4, N-[4-Methoxy-3-(4-bromophenyl)aminocarbonyl-phenyl]-2-chloro-5-(tert-butylcarbonylamino)methyl-benzamide]: the pIC50 is 9.00. As to `CC(C)(C)C(=O)NCc1ccc(Cl)c(C(=O)Nc2ccc(Cl)c(C(=O)Nc3ccc(Br)cc3)c2)c1` [Example 3, N-[4-Chloro-3-(4-bromophenyl)aminocarbonyl-phenyl]-2-chloro-5-(tert-butylcarbonylamino)methyl-benzamide], the pIC50 was 7.66.

For `COc1ccc(NC(=O)c2cc(CNC(=O)C(C)(C)C)ccc2Cl)cc1C(=O)NC1CCCCC1` [Example 17], the pIC50 was 7.80. Turning to `COc1ccc(NC(=O)c2cc(CNC(=O)C3(O)CC3)ccc2Cl)cc1C(=O)Nc1ccc(Br)cc1` [Example 28], the pIC50 was 8.40.

Turning to `CC(C)(C(=O)NCc1ccc(Cl)c(C(=O)Nc2cnc(OCC(F)F)c(C(=O)Nc3ccc(Br)cc3)c2)c1)C(F)(F)F` [Example 73, N-[2-(2,2-Difluoroethyl)oxy-3-(4-bromophenyl)aminocarbonyl-pyridin-5-yl]-2-chloro-5-[(2,2,2-trifluoro-1,1-dimethyl-ethyl)carbonylamino]methyl-benzamide], the pIC50 was 8.15. Regarding `CC(C)(C)C(=O)NCc1ccc(Cl)c(C(=O)Nc2ccc(OCC(F)(F)F)c(C(=O)NCC3CC3)c2)c1` [Example 41], the pIC50 was 8.52. The value for `CC(C)(C)C(=O)NCc1ccc(Cl)c(C(=O)Nc2ccc(Cl)c(C(=O)NC3CC3)c2)c1` [Example 20] was roughly 5.52; that for `CC(C)(C)C(=O)NCc1ccc(Cl)c(C(=O)Nc2ccc(OCC(F)F)c(C(=O)NCC3CC3(C)C)c2)c1` (centres unmarked) [Example 14] was 8.40; that for `CC1CCN(c2ccc(NC(=O)c3cc(CNC(=O)C(C)(C)C)ccc3Cl)cc2C(=O)Nc2ccc(Br)cc2)CC1` [Example 37, N-[4-(4-Methyl-piperidin-1-yl)-3-(4-bromophenyl)aminocarbonyl-phenyl]-2-chloro-5-(tert-butylcarbonylamino)methyl-benzamide] was 9.00. The result for `CC(C)(C)C(=O)NCc1ccc(Cl)c(C(=O)Nc2ccc(OCC(F)(F)F)c(C(=O)N[C@H]3CC[C@H](C(F)(F)F)CC3)c2)c1` [Example 11] reads 8.40; that for `CCC(C)(CC)C(=O)NCc1ccc(Cl)c(C(=O)Nc2ccc(OC)c(C(=O)Nc3ccc(Br)cc3)c2)c1` [Example 34], 8.70.
